Patent US12419865B2 (priority 2018, dated 2025)
Where two headings read alike, the source gives them in different places.

How the values were obtained:
TCRV-p = experiment: organism not typed; assay type: cell-based; details: read-out: TCRV-p EC50
[1] = 1 h, pH 7.4
[2] = 1 h, pH 7.4; remark: listed apart in the source
MACV-p = experiment: organism not typed; assay type: cell-based, Machupo (MACV); details: Vero, read-out: MACV-p EC50
[3] = 1 h, pH 7.4; remark: listed apart in the source
replicative LASV [4] = experiment: microbe, parasite or virus in culture; assay type: cell-based, Lassa Virus; details: for EC90: Mammarenavirus lassaense
[5] = guinea pig, 1 h, pH 7.4
hERG channel = hERG channel (Homo sapiens, UniProt Q12809); details: pH 7.4
VSV-p = experiment: microbe, parasite or virus in culture; assay type: cell-based; details: Vesicular stomatitis virus, Vero, read-out: VSV-p EC50
GTOV-p = experiment: organism not typed; assay type: cell-based, Guanarito (GTOV); details: Vero, read-out: GTOV-p EC50
[6] = 1 h, pH 7.4; remark: listed apart in the source
LASV-p = experiment: microbe, parasite or virus in culture; assay type: cell-based, Lassa (LASV); details: Vesicular stomatitis virus, Vero, read-out: LASV-p EC50
replicative LASV [7] = experiment: microbe, parasite or virus in culture; assay type: cell-based, Lassa Virus; details: Mammarenavirus lassaense
[8] = system: native replicating Tacaribe (TCRV) virus; experiment: microbe, parasite or virus in culture; assay type: cell-based; details: Mammarenavirus tacaribeense, Vero, 120 h, read-out: TCRV EC50
[9] = 1 h, pH 7.4; remark: listed apart in the source
in vitro = details: African green monkey
JUNV-p = experiment: organism not typed; assay type: cell-based, Junin (JUNV); details: Vero, read-out: JUNV-p EC50
[10] = mouse, in vivo, 30 mg/kg
in vivo = details: mouse
[11] = mouse, in vivo, po
[12] = read-out: EC90 in the VYR assay format
[13] = read-out: EC50 in the plaque assay format

hERG channel, sequence (Q12809 whole entry): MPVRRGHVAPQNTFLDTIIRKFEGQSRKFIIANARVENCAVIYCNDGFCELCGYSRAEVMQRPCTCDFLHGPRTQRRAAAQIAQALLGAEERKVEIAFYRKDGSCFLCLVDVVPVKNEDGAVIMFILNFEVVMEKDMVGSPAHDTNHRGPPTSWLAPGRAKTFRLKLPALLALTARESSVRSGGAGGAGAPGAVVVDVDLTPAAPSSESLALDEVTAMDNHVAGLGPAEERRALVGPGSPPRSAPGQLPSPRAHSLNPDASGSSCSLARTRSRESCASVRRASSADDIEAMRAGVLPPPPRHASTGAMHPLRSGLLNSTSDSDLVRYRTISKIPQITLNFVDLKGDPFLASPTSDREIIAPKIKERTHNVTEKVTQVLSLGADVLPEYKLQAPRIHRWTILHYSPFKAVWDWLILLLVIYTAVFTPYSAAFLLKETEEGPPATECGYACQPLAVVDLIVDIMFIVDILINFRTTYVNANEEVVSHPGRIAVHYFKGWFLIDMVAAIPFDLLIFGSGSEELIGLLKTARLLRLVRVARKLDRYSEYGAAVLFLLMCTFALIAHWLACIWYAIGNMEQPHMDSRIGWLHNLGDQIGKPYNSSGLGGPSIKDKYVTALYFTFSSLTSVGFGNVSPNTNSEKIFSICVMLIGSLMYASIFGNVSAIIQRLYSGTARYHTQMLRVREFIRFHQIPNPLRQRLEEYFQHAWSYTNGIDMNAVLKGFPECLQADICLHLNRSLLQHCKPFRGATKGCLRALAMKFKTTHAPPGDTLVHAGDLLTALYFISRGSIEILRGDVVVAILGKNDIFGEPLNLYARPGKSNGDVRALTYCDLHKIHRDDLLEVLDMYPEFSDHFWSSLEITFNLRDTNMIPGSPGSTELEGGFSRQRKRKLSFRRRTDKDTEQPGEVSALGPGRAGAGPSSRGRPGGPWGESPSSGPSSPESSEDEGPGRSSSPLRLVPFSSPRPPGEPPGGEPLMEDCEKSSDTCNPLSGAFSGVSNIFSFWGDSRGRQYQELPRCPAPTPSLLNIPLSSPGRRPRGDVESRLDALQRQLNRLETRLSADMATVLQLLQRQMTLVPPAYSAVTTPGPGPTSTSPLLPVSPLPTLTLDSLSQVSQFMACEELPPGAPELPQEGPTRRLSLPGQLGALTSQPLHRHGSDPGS

Row | Compound | EC50 (TCRV-p; Vero) [nM] | EC50 (TCRV-p) [nM] | Percent parent compound remaining at 60 minutes in liver microsomes, Human [1] [%] | Percent parent compound remaining at 60 minutes in liver microsomes, Monkey [2] [%] | EC50 (MACV-p) [nM] | Percent parent compound remaining at 60 minutes in liver microsomes, Rat [3] [%] | Sl90 (replicative LASV [4]) | EC90 (replicative LASV [4]; Vero, read-out: VYR Assay EC90) [nM] | EC90 (replicative LASV [4]; [12]) [nM] | Percent parent compound remaining at 60 minutes in liver microsomes, Guinea [5] [%] | % Inhibition at 3 uM (hERG channel) [%] | EC50 (VSV-p) [nM] | Percent parent compound remaining at 60 minutes in liver microsomes, Dog [6] [%] | EC50 (LASV-p) [nM] | EC50 (replicative LASV [7]; [13]) [nM] | EC50 (replicative LASV [7]; read-out: Plaque Assay EC50) [nM] | EC50 [8] [nM] | Percent parent compound remaining at 60 minutes in liver microsomes, Mouse [9] [%] | CC50 (in vitro) [nM] | EC50 (JUNV-p) [nM] | also measured
1 | Cc1cc2ncc(-c3ccc(C(C)(C)O)cc3)n2cc1-c1ccc(OC(C)C)cc1 [Example B8, 2-(4-(6-(4-isopropoxyphenyl)-7-methylimidazo[1,2-a]pyridin-3-yl)phenyl)propan-2-ol] | 0.32 | 0.32 | 87.6 | 33.7 | 0.61 | 93 | >9,000 | < 3 | 1 to 3 | 67.7 | <10 | > 10000 | 77.57 | 2.91 | 1 to 3 | < 3 | 2.16 | 77.5 | 27800 | 0.76 | EC50 (GTOV-p): 0.94 nM
2 | Cc1cc2ncn(-c3ccc(OC(C)(C)C)cc3)c2cc1-c1ccc(C(C)(C)O)cc1 [Example A1, 2-(4-(1-(4-(tert-butoxy)phenyl)-5-methyl-1H-benzo[d]imidazol-6-yl)phenyl)propan-2-ol] | 0.29 | 0.24 | 68.3 | 8.6 | 0.12 | 93.8 | >33,000 | < 1 | 1 to 3 | >95 | <10 | > 10000 | >95 | 0.83 | 1 to 3 | < 3 | 0.89 | 82.7 | 37700 | 0.87 | Oral C-Max [10]: 20.4 µg/mL; Oral T-Max [10]: 0.5 h; Vd (in vivo): 17.6 L/kg; clearance (in vivo): 0.8 mL/min/kg; AUC(0-t) (in vivo; po, 30 mg/kg): 183 µg·h/mL; bioavailability (in vivo; po, 30 mg/kg): 35%; half-life (in vivo; po, 30 mg/kg): 17 h; 24 hr liver concentration [11]: 240.3 ug/g liver; 24 hr plasma concentration [11]: 8.8 µg/mL
